Laboratory results from patent publication US20110040086A1, “Novel Beta-Lactam Antibiotics, Methods for Their Production, and Their Use” (DRITTE PATENTPORTFOLIO BETEILIGUNGSGESELLSCHAFT MB, priority 2007, published 2011).

How the values were obtained:
[1] = system: Enterococcus faecalis 769; test: agar diffusion test (Test System II, multi-resistant germs); format: cell-based; set-up: key: r = resistant (no detectable zone of inhibition)
Method in brief: (§1)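 Stepped amounts of each substance (10, 50, 100 μg) were applied to carrier discs from methanol or water according to solubility. These were laid on Müller-Hinton agar II inoculated at McFarland 0.5, and zones of inhibition were read following overnight incubation (18-20 h) at 37 °C.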

[2] = system: Staphylococcus aureus 315; test: as above; format: cell-based; set-up: key: r = resistant (no detectable zone of inhibition)
Method in brief: as §1

S. aureus 38418 = test: as above; format: cell-based, Staphylococcus aureus
Method in brief: as §1

[3] = system: Escherichia coli SBUG 1135; test: agar diffusion test (Test System 1, antimicrobial effect); format: cell-based
Method in brief: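 E. coli SBUG 1135 grown 17 h at 37° C, 180 rpm, diluted 1:100 and seeded in nutrient agar at ~10^6 cells. Discs loaded with 10, 50 or 100 μg compound (methanol or water); inhibition-zone diameter (mm) read after 20 h at 37° C.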

S. epidermidis 125 = test: agar diffusion test (Test System II, multi-resistant germs); format: cell-based, Staphylococcus epidermidis
Method in brief: as §1

B. subtilis AWD 166 = test: agar diffusion test (antimicrobial effect); format: cell-based, Bacillus subtilis
Method in brief: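 Nutrient agar seeded with B. subtilis AWD 166 to give dense non-confluent colonies; compounds in methanol or distilled water applied to discs at 10, 50, 100 μg. After 20 h at 37 °C, inhibition zone diameter measured in mm.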

S. epidermidis 563 = test: agar diffusion test (Test System II, multi-resistant germs); format: cell-based, Staphylococcus epidermidis; set-up: key: r = resistant (no detectable zone of inhibition)
Method in brief: as §1

S. epidermidis 1071 = test: as above; format: cell-based, Staphylococcus epidermidis; set-up: key: r = resistant (no detectable zone of inhibition)
Method in brief: as §1

S. epidermidis 847 = test: as above; format: cell-based, Staphylococcus epidermidis; set-up: key: r = resistant (no detectable zone of inhibition)
Method in brief: as §1

S. epidermidis 1068 = test: as above; format: cell-based, Staphylococcus epidermidis; set-up: key: r = resistant (no detectable zone of inhibition)
Method in brief: as §1

[4] = system: Bacillus megaterium SBUG 1152; test: agar diffusion test (Test System 1, antimicrobial effect); format: cell-based
Method in brief: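 B. megaterium SBUG 1152 grown overnight (17 h, 37° C., 180 rpm) and seeded at 10^6 cells per 10 ml nutrient agar. Compound at 10, 50 and 100 μg, dissolved in methanol or water, applied to paper discs. Inhibition-zone diameter (mm) read after 20 h at 37° C.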

S. aureus 33490 = test: agar diffusion test (Test System II, multi-resistant germs); format: cell-based, Staphylococcus aureus; set-up: key: r = resistant (no detectable zone of inhibition)
Method in brief: as §1

S. aureus 526 = test: as above; format: cell-based, Staphylococcus aureus; set-up: key: r = resistant (no detectable zone of inhibition)
Method in brief: as §1

S. aureus 34289 = test: as above; format: cell-based, Staphylococcus aureus; set-up: key: r = resistant (no detectable zone of inhibition)
Method in brief: as §1

S. aureus 520 = test: as above; format: cell-based, Staphylococcus aureus; set-up: key: r = resistant (no detectable zone of inhibition)
Method in brief: as §1

S. aureus 36881 = test: as above; format: cell-based, Staphylococcus aureus; set-up: key: r = resistant (no detectable zone of inhibition)
Method in brief: as §1

[5] = system: S. aureus North Germany strain; test: as above; format: cell-based, Staphylococcus aureus; set-up: key: r = resistant (no detectable zone of inhibition)
Method in brief: as §1

S. aureus 39105 = test: as above; format: cell-based, Staphylococcus aureus; set-up: key: r = resistant (no detectable zone of inhibition)
Method in brief: as §1

Question: For `CCOC(=O)C1=C(NC(C(=O)NC2C(=O)N3C(C(=O)O)=C(Cl)CSC23)c2ccccc2)C(=O)C=CC1=O` (stereo not drawn) [1l], which “Diameter of zone of inhibition” value ([1]; Quantity n 0.019) is on record?
Answer: The value was “r”.

Question: And the “Diameter of zone of inhibition” value ([1]; Quantity n 0.09)?
Answer: Its value is “r”.

Question: And the “Diameter of zone of inhibition” value ([1]; Quantity n 0.19)?
Answer: Its value is “r”.

Question: And the “Diameter of zone of inhibition” value ([2]; Quantity n 0.019)?
Answer: The value was “r”.

Question: What about the “Diameter of zone of inhibition” value ([2]; Quantity n 0.09) of the same compound?
Answer: The value was 10 mm.

Question: And the “Diameter of zone of inhibition” value ([2]; Quantity n 0.19)?
Answer: Its value is 14 mm.

Question: And the “Diameter of zone of inhibition” value (S. aureus 38418; Quantity n [mol] 0.019)?
Answer: The value was 18 mm.

Question: What about the “Diameter of zone of inhibition” value (S. aureus 38418; Quantity n [mol] 0.09) of the same compound?
Answer: Its value is 28 mm.

Question: What about the “Diameter of zone of inhibition” value (S. aureus 38418; Quantity n [mol] 0.19) of the same compound?
Answer: Its value is 30 mm.

Question: What about the “Diameter of zone of inhibition” value ([3]; Quantity n 0.019) of the same compound?
Answer: The value was 18 mm.

Question: What about the “Diameter of zone of inhibition” value ([3]; Quantity n 0.09) of the same compound?
Answer: The value was 24 mm.

Question: What about the “Diameter of zone of inhibition” value ([3]; Quantity n 0.19) of the same compound?
Answer: Its value is 28 mm.

Question: And the “Diameter of zone of inhibition” value (S. epidermidis 125; Quantity n 0.019)?
Answer: The value was 18 mm.

Question: And the “Diameter of zone of inhibition” value (S. epidermidis 125; Quantity n 0.09)?
Answer: The value was 26 mm.

Question: And the “Diameter of zone of inhibition” value (S. epidermidis 125; Quantity n 0.19)?
Answer: The value was 28 mm.

Question: What about the “Diameter of zone of inhibition” value (B. subtilis AWD 166; Quantity n 0.019) of the same compound?
Answer: The value was 30 mm.

Question: What about the “Diameter of zone of inhibition” value (B. subtilis AWD 166; Quantity n 0.09) of the same compound?
Answer: Its value is 34 mm.

Question: And the “Diameter of zone of inhibition” value (B. subtilis AWD 166; Quantity n 0.19)?
Answer: The value was 38 mm.

Question: And the “Diameter of zone of inhibition” value (S. epidermidis 563; Quantity n 0.019)?
Answer: Its value is 16 mm.

Question: What about the “Diameter of zone of inhibition” value (S. epidermidis 563; Quantity n 0.09) of the same compound?
Answer: Its value is 28 mm.

Question: What about the “Diameter of zone of inhibition” value (S. epidermidis 563; Quantity n 0.19) of the same compound?
Answer: The value was 30 mm.

Question: What about the “Diameter of zone of inhibition” value (S. epidermidis 1071; Quantity n 0.019) of the same compound?
Answer: Its value is 16 mm.

Question: What about the “Diameter of zone of inhibition” value (S. epidermidis 1071; Quantity n 0.09) of the same compound?
Answer: Its value is 24 mm.

Question: What about the “Diameter of zone of inhibition” value (S. epidermidis 1071; Quantity n 0.19) of the same compound?
Answer: Its value is 28 mm.

Question: And the “Diameter of zone of inhibition” value (S. epidermidis 847; Quantity n [mol] 0.019)?
Answer: Its value is “r”.

Question: What about the “Diameter of zone of inhibition” value (S. epidermidis 847; Quantity n [mol] 0.09) of the same compound?
Answer: Its value is 20 mm.

Question: What about the “Diameter of zone of inhibition” value (S. epidermidis 847; Quantity n [mol] 0.19) of the same compound?
Answer: The value was 22 mm.

Question: What about the “Diameter of zone of inhibition” value (S. epidermidis 1068; Quantity n 0.019) of the same compound?
Answer: The value was 14 mm.

Question: And the “Diameter of zone of inhibition” value (S. epidermidis 1068; Quantity n 0.09)?
Answer: Its value is 20 mm.

Question: And the “Diameter of zone of inhibition” value (S. epidermidis 1068; Quantity n 0.19)?
Answer: Its value is 22 mm.

Question: What about the “Diameter of zone of inhibition” value ([4]; Quantity n 0.019) of the same compound?
Answer: Its value is 30 mm.

Question: What about the “Diameter of zone of inhibition” value ([4]; Quantity n 0.09) of the same compound?
Answer: The value was 34 mm.

Question: What about the “Diameter of zone of inhibition” value ([4]; Quantity n 0.19) of the same compound?
Answer: Its value is 38 mm.

Question: What about the “Diameter of zone of inhibition” value (S. aureus 33490; Quantity n [μmol] 0.019) of the same compound?
Answer: Its value is 14 mm.

Question: And the “Diameter of zone of inhibition” value (S. aureus 33490; Quantity n [μmol] 0.09)?
Answer: Its value is 20 mm.

Question: And the “Diameter of zone of inhibition” value (S. aureus 33490; Quantity n [μmol] 0.19)?
Answer: Its value is 24 mm.

Question: And the “Diameter of zone of inhibition” value (S. aureus 526; Quantity n 0.019)?
Answer: The value was “r”.

Question: And the “Diameter of zone of inhibition” value (S. aureus 526; Quantity n 0.09)?
Answer: Its value is “r”.

Question: And the “Diameter of zone of inhibition” value (S. aureus 526; Quantity n 0.19)?
Answer: Its value is “r”.

Question: What about the “Diameter of zone of inhibition” value (S. aureus 34289; Quantity n [mol] 0.019) of the same compound?
Answer: Its value is “r”.

Question: And the “Diameter of zone of inhibition” value (S. aureus 34289; Quantity n [mol] 0.09)?
Answer: The value was “r”.

Question: And the “Diameter of zone of inhibition” value (S. aureus 34289; Quantity n [mol] 0.19)?
Answer: The value was “r”.

Question: What about the “Diameter of zone of inhibition” value (S. aureus 520; Quantity n [mol] 0.019) of the same compound?
Answer: The value was “r”.

Question: And the “Diameter of zone of inhibition” value (S. aureus 520; Quantity n [mol] 0.09)?
Answer: Its value is “r”.

Question: And the “Diameter of zone of inhibition” value (S. aureus 520; Quantity n [mol] 0.19)?
Answer: Its value is 10 mm.

Question: What about the “Diameter of zone of inhibition” value (S. aureus 36881; Quantity n 0.019) of the same compound?
Answer: Its value is “r”.

Question: And the “Diameter of zone of inhibition” value (S. aureus 36881; Quantity n 0.09)?
Answer: Its value is 8 mm.

Question: What about the “Diameter of zone of inhibition” value (S. aureus 36881; Quantity n 0.19) of the same compound?
Answer: The value was 18 mm.

Question: What about the “Diameter of zone of inhibition” value ([5]; Quantity n 0.019) of the same compound?
Answer: The value was “r”.

Question: What about the “Diameter of zone of inhibition” value ([5]; Quantity n 0.09) of the same compound?
Answer: The value was 10 mm.

Question: What about the “Diameter of zone of inhibition” value ([5]; Quantity n 0.19) of the same compound?
Answer: Its value is 16 mm.

Question: What about the “Diameter of zone of inhibition” value (S. aureus 39105; Quantity n 0.019) of the same compound?
Answer: Its value is “r”.

Question: And the “Diameter of zone of inhibition” value (S. aureus 39105; Quantity n 0.09)?
Answer: The value was 18 mm.

Question: What about the “Diameter of zone of inhibition” value (S. aureus 39105; Quantity n 0.19) of the same compound?
Answer: The value was 22 mm.
